Data on one molecule can be found in ChEMBL document CHEMBL4831503, “Design, synthesis, in vitro and in vivo anti-respiratory syncytial virus (RSV) activity of novel oxizine fused benzimidazole derivatives” (Eur J Med Chem, 2021).

Active and inactive are the calls of the source. The calls are words filed in the database; no cut-off is given here.

For assay [1], the system named is Respiratory syncytial virus. As to the kind of experiment: Antiviral activity against RSV infected in BALB/c mouse assessed as downregulation of iNOS expression in lung tissue infected with RSV at 25 to 100 mg/kg/day measured after 2 to 6 days post infection by RT-PCR analysis. Format: functional, organism-based. The following applies: dose 25-100 mg/kg/day, time 2-6 day.

The test system of assay [2] is Human orthopneumovirus. Nature of the assay: Antiviral activity against Respiratory syncytial virus A2 infected in human HEp-2 cells assessed as reduction in viral infection incubated for 60 hrs by MTT assay. Format: functional, organism-based. To be noted: A2, HEp-2, 60 h. (Tetrazolium dyes change colour on reduction, which living cells bring about.)
Assay [3] relates to Respiratory syncytial virus. As to the kind of experiment: Antiviral activity against RSV infected in BALB/c mouse assessed as downregulation of IL-8 expression in lung tissue infected with RSV at 25 to 100 mg/kg/day measured after 2 to 6 days post infection by RT-PCR analysis. Format: functional, organism-based. To be noted: dose 25-100 mg/kg/day, time 2-6 day.
Assay [4] has as its system Respiratory syncytial virus. Nature of the assay: Antiviral activity against RSV infected in BALB/c mouse assessed as downregulation of IL-10 expression in lung tissue infected with RSV at 25 to 100 mg/kg/day measured after 2 to 6 days post infection by RT-PCR analysis. Type of assay: functional, organism-based. To be noted: dose 25-100 mg/kg/day, time 2-6 day.
The test system of assay [5] is Respiratory syncytial virus. As to the kind of experiment: Antiviral activity against RSV infected in BALB/c mouse assessed as downregulation of RIG-1 expression in lung tissue infected with RSV at 25 to 100 mg/kg/day measured after 2 to 4 days post infection by RT-PCR analysis. Format: functional, organism-based. To be noted: dose 25-100 mg/kg/day, time 2-4 day.
In assay [6] the test system is Respiratory syncytial virus. Nature of the assay: Antiviral activity against Respiratory syncytial virus infected in human HEp-2 cells assessed as inhibition of virus infected cells induced lesion formation at 25 uM measured after 60 hrs by microscopic analysis. Type of assay: functional, organism-based.
The test system of assay [7] is Respiratory syncytial virus. As to the kind of experiment: Antiviral activity against Respiratory syncytial virus Long infected in human A549 cells assessed as reduction in viral infection incubated for 60 hrs by MTT assay. Format: functional, organism-based. The following applies: A549, 60 h.
Assay [8] deals with Human orthopneumovirus. Nature of the assay: Antiviral activity against Respiratory syncytial virus A2 infected in human HEp-2 cells assessed as reduction in viral infection up to 50 uM treated 2 hpi measured after 60 hrs by MTT assay. Type of assay: functional, organism-based. The following applies: dose microM <=50, time 60.0 hrs.
Assay [9] has as its system Respiratory syncytial virus. Nature of the assay: Antiviral activity against Respiratory syncytial virus Long infected in human HEp-2 cells assessed as reduction in viral infection incubated for 60 hrs by MTT assay. Format: functional, organism-based. The following applies: HEp-2, 60 h.
Assay [10] relates to Respiratory syncytial virus. Nature of the assay: Antiviral activity against Respiratory syncytial virus infected in human HEp-2 cells assessed as reduction in viral infection incubated for 60 hrs by MTT assay. Format: functional, organism-based. To be noted: dose 3.125-50 µM.
For assay [11], the system named is Respiratory syncytial virus. As to the kind of experiment: Antiviral activity against RSV infected in BALB/c mouse assessed as downregulation of IL-6 expression in lung tissue infected with RSV at 25 to 100 mg/kg/day measured after 2 days post infection by RT-PCR analysis. To be noted: dose 25-100 mg/kg/day, time 2.0 day. Format: functional, organism-based.
For assay [12], the system named is Human orthopneumovirus. Nature of the assay: Antiviral activity against Respiratory syncytial virus A2 infected in human A549 cells assessed as reduction in viral infection incubated for 60 hrs by MTT assay. Type of assay: functional, organism-based. The following applies: A2, A549, 60 h.
Assay [13] relates to Respiratory syncytial virus. As to the kind of experiment: Antiviral activity against Respiratory syncytial virus infected in human HEp-2 cells assessed as inhibition of viral replication at 25 uM treated up to 14 hpi and measured after 60 hrs by MTT assay. Format: functional, organism-based.
The subject of assay [14] is Respiratory syncytial virus. As to the kind of experiment: Antiviral activity against RSV infected in human HEp-2 cells assessed as decrease in virus induced IRF3 gene expression measured after 48 hrs by RT-PCR analysis. Type of assay: functional, organism-based.
In assay [15] the test system is Respiratory syncytial virus. Nature of the assay: Antiviral activity against RSV infected in BALB/c mouse assessed as downregulation of TLR3 expression in lung tissue infected with RSV at 25 to 100 mg/kg/day measured after 2 to 6 days post infection by RT-PCR analysis. Type of assay: functional, organism-based. To be noted: dose 25-100 mg/kg/day, time 2-6 day.
A short description of assay [16]: Inhibition of RSV induced ROS production in human HEp-2 cells assessed as reduction in accumulation of ROS-positive cells at 25 uM measured after 36 hrs by DCHF-DA staining based flow cytometry analysis (reference value: 82.2%). Format: functional, Respiratory syncytial virus. Further details: scale not given: the % may be the effect or the level left. (In general: Flow cytometry measures light scatter and fluorescence of single cells or particles in a stream.)

The test system of assay [17] is Respiratory syncytial virus. As to the kind of experiment: Inhibition of RSV induced apoptosis in human HEp-2 cells assessed as early apoptotic cells at 25 uM measured after 60 hrs by Annexin V-FITC/PI staining based flow cytometry analysis (reference value: 10.3%). Format: functional. On the set-up: scale not given: the % may be the effect or the level left.
The subject of assay [18] is Respiratory syncytial virus. Nature of the assay: Inhibition of RSV induced apoptosis in human HEp-2 cells assessed as late apoptotic cells at 50 uM measured after 60 hrs by Annexin V-FITC/PI staining based flow cytometry analysis (reference value: 20.2%). Format: functional. Further details: scale not given: the % may be the effect or the level left.
In assay [19] the test system is Respiratory syncytial virus. As to the kind of experiment: Antiviral activity against RSV infected in human HEp-2 cells assessed as decrease in virus induced RIG-1 gene expression measured after 48 hrs by RT-PCR analysis. Format: functional, organism-based.
The test system of assay [20] is Respiratory syncytial virus. As to the kind of experiment: Antiviral activity against RSV Long infected in BALB/c mouse assessed as reversal of virus infection induced weight loss at 25 to 100 mg/kg/day administered via gastric gavage once daily for 6 days. Format: functional, organism-based. The following applies: dose 25-100 mg/kg/day, time 6.0 day.
Assay [21] deals with Respiratory syncytial virus. Nature of the assay: Antiviral activity against RSV Long infected in BALB/c mouse assessed as improvement in inflammatory infiltration of lung tissue at 25 mg/kg/day observed on day 6 after infection by H and E staining based microscopic analysis. Type of assay: functional, organism-based. To be noted: time 6.0 day.
Assay [22] has as its system Respiratory syncytial virus. Nature of the assay: Antiviral activity against RSV infected in human HEp-2 cells assessed as decrease in virus induced IL-6 gene expression measured after 48 hrs by RT-PCR analysis. Type of assay: functional, organism-based.
Assay [23] relates to Respiratory syncytial virus. Nature of the assay: Antiviral activity against RSV infected in human HEp-2 cells assessed as decrease in virus induced IFN-beta gene expression measured after 48 hrs by RT-PCR analysis. Type of assay: functional, organism-based.
The subject of assay [24] is Respiratory syncytial virus. As to the kind of experiment: Antiviral activity against RSV infected in human HEp-2 cells assessed as decrease in virus induced TBK1 gene expression measured after 48 hrs by RT-PCR analysis. Format: functional, organism-based.

What is called EC50 is the concentration that produces a half-maximal response. For `Cc1c(Br)cc2nc3n(c2c1Br)[C@H]1OC[C@@H](O)[C@H]1OC3`, the outcome (in assay [1]; in assay [3]; in [4]; in assay [5]; in assay [6]; in the assay on Human orthopneumovirus [8]) was Active. The outcome in [11], in [13], in assay [15], in [20] and in assay [21] was Active. Also, the EC50 in the assay with Human orthopneumovirus [2] stood at 12.8 µM; in [7], 13.3 µM; in assay [9] it was 9.49 µM; in the assay on Human orthopneumovirus [12], 13.2 µM. The Activity result in [10] was “Dose-Dependent Effect”; in assay [14], “Dose-Dependent Effect”; in assay [16] it was 60.7%; in assay [17], 12%; in [18], 2.2%; in assay [19], “Dose-Dependent Effect”. Moreover, the Activity entry in assay [22], in [23] and in assay [24] was “Dose-Dependent Effect” each time.
